{"source": "paper PMC5656594", "about": "(Scientific Reports, 2017)", "key": {"[1]": {"molecular_target": "T1, IN alone (IN^PFV) (Human spumaretrovirus, UniProt P14350)", "T1 construct": "The full-length wt IN^PFV, the three single mutants of the catalytic triad; His; made in house; host or cells: E. coli BL21-CodonPlus (DE3)-RIPL", "assay": "DTG fluorescence enhancement in the presence of IN alone", "assay_type": "binding, prototype foamy virus (PFV)", "settings": "1 mM Mg2+", "procedure": "The three other conditions (i→iii) led to superimposable spectra. To note, the presence of IN/DNA complexes accounts for light scattering on the blue side of the spectrum.\nAll experiments were performed in the presence of 1 mM Mg^2+ (see Supplementary Fig. S4 for [Mg^2+] = 10 mM). λex = 345 nm and PMT = 980 V (Δλex = Δλem = 5 nm). […] Contributions of Raman and Rayleigh scattering were eliminated in the inset spectrum: (viii) = (iv)–(vii) where (vii) represents the proper spectrum of Mg^2+-DTG in the context of the binary IN-DNA complex. […] [Mg^2+] = 1 mM. Inset: fluorescence intensity (375–385 nm) as a function of (IN + DNA). The arrows indicate the intensity level after addition of 500 mM NaCl. Emission spectra are representative of 3 independent experiments for each condition of (IN + DNA). […] (E) Measurement of the binary IN-DNA complex formation. The formation of binary complexes was performed by monitoring the fluorescence anisotropy (r) of DNA (Fl-PFV^CAAT) under similar experimental conditions of the DTG-binding assay (panels C-D). Top, varying stoichiometric concentrations of IN and DNA were mixed and the r parameter was monitored. […]\nFluorescence excitation and emission spectra of INSTIs were recorded on a Eclipse (Varian) spectrofluorimeter equipped with two polarizers for anisotropy measurements and a thermostated cell holder, using 80 µl solutions placed in micro cells (Hellma). […]"}, "[2]": {"molecular_target": "T2, G187R IN^PFV-DNA complex (Human spumaretrovirus, UniProt P14350, G938R/G968S/S969G)", "T2 construct": "The pET-IN-PFV plasmid containing the full-length IN gene was used for mutagenesis; His; made in house; host or cells: E. coli BL21-CodonPlus (DE3)-RIPL", "assay": "Fluorescence enhancement DTG-binding assay, G187R mutant", "set-up": "species or system prototype foamy virus (PFV)", "settings": "DTG 0.3 μM, 1 mM Mg2+", "procedure": "(§1) The fluorescence intensity was monitored as a function of (IN + DNA) and plotted as a function of the binary IN-DNA complex concentration (measured as explained in Fig. 2E legend). […] The graphs in panels A-B show representative data of three independent experiments.\n(§2) Fluorescence excitation and emission spectra of INSTIs were recorded on a Eclipse (Varian) spectrofluorimeter equipped with two polarizers for anisotropy measurements and a thermostated cell holder, using 80 µl solutions placed in micro cells (Hellma). Drug, IN and DNA concentrations, excitation/emission slit settings as well as the photomultiplier tube (PMT) voltage are specified in figure legends. The intensity value was corrected from the inner filter effect. The steady-state fluorescence anisotropy was calculated using: r = (IVV–G x IVH)/(IVV + 2GxIVH) where IVV and IVH correspond to vertical and horizontal components, respectively, when the sample is excited with vertically polarized light. G represents the correction factor for the difference in the monochromator transmission between // and ⊥ polarized components: G = IHV/IHH. All experiments were performed at 25 °C in buffer A: 20 mM Tris pH 7.2, 50 mM NaCl, 1 mM DTT and 10% (v/v) DMSO."}, "[3]": {"molecular_target": "T3, S217K IN^PFV-DNA complex (Human spumaretrovirus, UniProt P14350, G968K/S969G)", "T3 construct": "The pET-IN-PFV plasmid containing the full-length IN gene was used for mutagenesis; His; made in house; host or cells: E. coli BL21-CodonPlus (DE3)-RIPL", "assay": "Fluorescence enhancement DTG-binding assay, S217K mutant", "set-up": "species or system prototype foamy virus (PFV)", "settings": "DTG 0.3 μM, 1 mM Mg2+", "procedure": "as §1, §2"}, "[4]": {"molecular_target": "T4, E221A IN^PFV-DNA complex (Human spumaretrovirus, UniProt P14350, E972A/G968S/S969G)", "T4 construct": "The pET-IN-PFV plasmid containing the full-length IN gene was used for mutagenesis; His; made in house; host or cells: E. coli BL21-CodonPlus (DE3)-RIPL", "assay": "Fluorescence enhancement DTG-binding assay, E221A catalytic mutant", "set-up": "species or system prototype foamy virus (PFV)", "settings": "1 mM Mg2+", "procedure": "(§3) The fluorescence intensity was monitored as a function of (IN + DNA) and plotted as a function of the binary IN-DNA complex concentration (measured as explained in Fig. 2E legend). […] (B) The percentage of ternary complexes was calculated using DTG fluorescence enhancement. […] The graphs in panels A-B show representative data of three independent experiments. […] \"DTG\" is taken from the y-axis title of the same panel.\n(§4) To note, Mg^2+ is dispensable for the overall DNA-binding step of IN[32],[43]–[45] and thus, the loss of Mg^2+ chelation is not contradictory with results showing that catalytic mutants bind equally well to DNA and in a similar manner than wt IN (Supplementary Fig. S6). However, G187R cannot be considered as a catalytic mutant since it sustains a significant ST activity although weak (≈10% of the wt activity; Fig. 6).\n(§5) Fluorescence excitation and emission spectra of INSTIs were recorded on a Eclipse (Varian) spectrofluorimeter equipped with two polarizers for anisotropy measurements and a thermostated cell holder, using 80 µl solutions placed in micro cells (Hellma). […] The steady-state fluorescence anisotropy was calculated using: r = (IVV–G x IVH)/(IVV + 2GxIVH) where IVV and IVH correspond to vertical and horizontal components, respectively, when the sample is excited with vertically polarized light. […]"}, "[5]": {"molecular_target": "T2, G187R IN^PFV-DNA complex", "assay": "DTG fluorescence anisotropy binding assay, G187R mutant", "set-up": "species or system prototype foamy virus (PFV)", "settings": "10 mM Mg2+, DTG 0.6 μM, [IN]=[DNA]=2.4 μM", "procedure": "as §3, §4, §5"}, "[6]": {"tested_on": "S217K IN^PFV mutant", "assay_type": "biochemical, prototype foamy virus (PFV)", "settings": "S217K versus wt, ST activity", "experimental": "The graphs show representative data of three independent experiments. […] ST products were quantified as explained in the Methods section.\nDNA#13 mimicking the 3′-processed end (Table 1) was radiolabeled with T4 polynucleotide kinase (NEB) and [γ-^32P]ATP (Amersham) and purified on a Sephadex G-10 column. The double-stranded DNA substrate was obtained by mixing equimolar amounts of ssDNA#13 with its 21-mer complementary strand in the presence of 100 mM NaCl. ST reactions were carried out at 37 °C with 200 or 300 nM IN in 20 mM HEPES pH 6.8, 1 mM DTT, 10 mM MgCl2 and 50 mM NaCl, in the presence of 12.5 nM DNA. After separation in a 16% acrylamide/urea denaturing gel, ST products were analyzed with a Typhoon TRIO variable mode imager (GE Healthcare) and quantified with ImageQuant TL software. ST activity was expressed as the % of the signal intensity of ST products divided by the signal intensity of the DNA substrate. […] IC50 values were determined using the Prism 5.0 software."}, "[7]": {"tested_on": "S217H IN^PFV mutant", "settings": "S217H versus wt; cited from earlier work"}}, "data": [{"smiles": "C[C@@H]1CCO[C@H]2Cn3cc(C(=O)NCc4ccc(F)cc4F)c(=O)c(O)c3C(=O)N12", "note": "[DTG, dolutegravir]", "values": [{"measurement": "DTG binding to IN alone", "setting": "[1]", "result": "no DTG binding"}, {"measurement": "DTG binding to G187R", "setting": "[2]", "result": "No binding"}, {"measurement": "DTG binding to S217K", "setting": "[3]", "result": "No binding"}, {"measurement": "DTG binding to E221A catalytic mutant", "setting": "[4]", "result": "loss of DTG-binding"}, {"measurement": "DTG binding to G187R by DTG anisotropy", "setting": "[5]", "result": "DTG-binding defects"}, {"measurement": "decrease in DTG susceptibility", "setting": "[6]", "result": "≈ 50 fold"}, {"measurement": "decrease in DTG susceptibility", "setting": "[7]", "result": "2–3 fold"}]}]}
